Measured values as given in patent US8586547B2, “CDC45L peptides and vaccines including the same” (Oncotherapy Science, Inc., priority 2009, dated 2013).
Like-named read-outs stand apart in the source and are kept apart here. Where a SMILES comes first, the peptide text is derived from it.

Assays:
[1] = system: EBC-1 cells (CDC45L+, HLA-A24+); assay type: cell-based, human
Experimental: (§1) To knock down the expression of CDC45L in lung cancer cells, CDC45L small interfering (si) RNAs (human Cdc45 siRNA, sc-35044: a pool of three target-specific 20-25 nt siRNAs; Santa Cruz) were added at a final concentration of 150 nM to 40-60% confluent cells. Lipofectamine™ 2000 (Invitrogen) was used to transfect the siRNAs into cells, according to the manufacturer's instructions. GFP siRNAs were used as an irrelevant control. The treated cells were washed once with PBS, and adherent cells were collected at 72 h after transfection and used as target cells for the ^51Cr-release assay. To investigate the ability of siRNA to suppress CDC45L expression, western blot analysis was performed as described previously (Nakatsura T et al., Biochem Biophys Res Commun 2003; 306:16-25). Cancer cells were washed once with PBS at 48 h after transfection, and adherent cells were collected and lysed to analyze the expression levels of CDC45L for comparison with those of negative control cells. Beta-actin was used as the internal control. Rabbit polyclonal antibody reactive to CDC45L (sc-20685, Santa Cruz Biotechnology) was used as the primary antibody.

[2] = system: C1R-A2402 cells pulsed with CDC45L derived peptides
Experimental: The DCs were pulsed with 20 micro-g/mL of the candidate peptides in the presence of 4 micro-g/mL beta 2-microglobulin (Sigma-Aldrich) for 2 h at 37 degrees C. in AIM-V (Invitrogen) supplemented with 2% heat-inactivated autologous plasma. The cells were then irradiated (40 Gy) and incubated with the isolated CD8^+ T cells as described previously (Imai K et al., Clin Cancer Res 2008; 14:6487-95, Harao M et al., Int J Cancer 2008; 123:2616-25). Two additional stimulations with peptide-loaded autologous PHA-blasts were performed on days 7 and 14. The PHA-blasts were generated as described previously (Inoue M et al., Immunol Lett 2009; 126:67-72), and these PHA-blasts (5×10^5) were pulsed with 20 micro-g/mL peptides for 3 h, irradiated (100 Gy) and cultured with the 2×10^6 CD8^+ T cells in the presence of 10 ng/mL human recombinant IL-7 (Wako, Osaka, Japan). After 2 days, the cultures were supplemented with 20 IU/mL human recombinant IL-2 (PeproTec, Inc.).
Six days after the last stimulation, the antigen-specific responses of the induced CTLs were investigated. Two additional weekly stimulations with peptide-loaded autologous PHA-blasts were carried out on day 7 and 14. Autologous CD 14^− CD8^− cells enriched with CD4^+ T cells were cultured with PHA (2 micro-g/mL) and human recombinant IL-2 (100 IU/mL) for 2 days, and cells were washed with PBS and cultured with human recombinant IL-2 (100 IU/mL) for additional three days. These PHA-blasts (5×10^5) were pulsed with 50 micro-g/mL peptides for 2 hours at 37 degrees C. in AIM-V (Invitrogen) supplemented with 2% heat-inactivated autologous plasma. The cells were then irradiated (100 Gy) and incubated with the 2×10^6 CD8^+ T cells. These cultures were set up in 24-well plates using the medium supplemented with 5 ng/mL human recombinant IL-7, IL-2, and IL-15. Six days after the last stimulation, the antigen-specific responses of the induced CTLs were investigated by an IFN-gamma ELISPOT assay, CD107a mobilization assay and ^51Cr release assay as described previously (Komori H et al. Clin Cancer Res 2006; 12: 2689-97) and below.
The frequency of cells producing interferon (IFN)-gamma per 1×10^5 CTLs upon stimulation with Lu99 cells (1×10^4/well) or peptide-pulsed C1R-A2402 and T2 cells (1×10^4/well) was analyzed by an ELISPOT assay (Human IFN-gamma ELISPOT kit, BD Biosciences) as previously described (Komori H et al., Clin Cancer Res 2006; 12:2689-97, Bourgault V I et al., Cancer Res 2004; 64:8761-6). The CTLs were co-cultured with cancer cells or peptide-pulsed C1R-A2402 and T2 cells as target cells (5×10^3/well) at the indicated effector-to-target ratio, and a standard ^51Cr-release assay was performed as described previously (Yokomine K et al., Int J Cancer 2009; 126:2153-63, Monji M et al., Clin Cancer Res 2004; 10:6047-57). The blocking of HLA-class I by anti-human HLA class I mAb, W6/32 (IgG2a, Santa Cruz Biotechnology), or HLA-class II by anti-human HLA-DR mAb (IgG2a, BD Biosciences), was performed as described previously (Komori H et al., Clin Cancer Res 2006; 12:2689-97, Makita M et al., Clin Cancer Res 2002; 8:2626-31).

[3] = Immunization of BALB/c mice with peptides emulsified in incomplete Freund adjuvant; assay type: in vivo; conditions: long-term observation period, unpublished data
[4] = system: Lu99 cells (CDC45L+, HLA-A24+); experiment: 51Cr-release assay against Lu99 lung cancer cells; assay type: cell-based, human
Experimental: as §1

[5] = system: A549 cells (CDC45L+, HLA-A24-); assay type: cell-based, human
Experimental: (§2) The CTLs were co-cultured with cancer cells or peptide-pulsed C1R-A2402 and T2 cells as target cells (5×10^3/well) at the indicated effector-to-target ratio, and a standard ^51Cr-release assay was performed as described previously (Yokomine K et al., Int J Cancer 2009; 126:2153-63, Monji M et al., Clin Cancer Res 2004; 10:6047-57). The blocking of HLA-class I by anti-human HLA class I mAb, W6/32 (IgG2a, Santa Cruz Biotechnology), or HLA-class II by anti-human HLA-DR mAb (IgG2a, BD Biosciences), was performed as described previously (Komori H et al., Clin Cancer Res 2006; 12:2689-97, Makita M et al., Clin Cancer Res 2002; 8:2626-31).

[6] = system: T2 cells pulsed with the peptide; conditions: CTL lines from HLA-A2 positive healthy donor; not against HIV-A2 peptide-loaded T2 cells
Experimental: PBMCs were isolated from HLA-A24 or HLA-A2 positive Japanese healthy donors and lung cancer patients, and the peripheral monocyte-derived dendritic cells (DCs) were generated as described previously (Harao M et al., Int J Cancer 2008; 123:2616-25, Naito K et al., Int J Oncol 2006; 28:1481-9). The DCs were pulsed with 20 micro-g/mL of the candidate peptides in the presence of 4 micro-g/mL beta 2-microglobulin (Sigma-Aldrich) for 2 h at 37 degrees C. in AIM-V (Invitrogen) supplemented with 2% heat-inactivated autologous plasma. The cells were then irradiated (40 Gy) and incubated with the isolated CD8^+ T cells as described previously (Imai K et al., Clin Cancer Res 2008; 14:6487-95, Harao M et al., Int J Cancer 2008; 123:2616-25). Two additional stimulations with peptide-loaded autologous PHA-blasts were performed on days 7 and 14. […]
The frequency of cells producing interferon (IFN)-gamma per 1×10^5 CTLs upon stimulation with Lu99 cells (1×10^4/well) or peptide-pulsed C1R-A2402 and T2 cells (1×10^4/well) was analyzed by an ELISPOT assay (Human IFN-gamma ELISPOT kit, BD Biosciences) as previously described (Komori H et al., Clin Cancer Res 2006; 12:2689-97, Bourgault V I et al., Cancer Res 2004; 64:8761-6). […]

[7] = system: Panc1 cells (CDC45L+, HLA-A2+, HLA-A24-); experiment: 51Cr-release assay against Panc1 cells; conditions: not inhibited by control anti-HLA-class II mAb
Experimental: as §2

Row | pathological changes, such as lymphocyte infiltration or tissue destruction [3] | signs of autoimmune diseases, such as weight loss, diarrhea and skin abnormalities [3] | Compound | cytotoxicity of peptide-induced CTLs against EBC-1 cells [1] | cytotoxic activity of CTL lines against peptide-pulsed C1R-A2402 cells [2] | other results
1 | – | – | CC(C)C[C@H](NC(=O)[C@H](Cc1ccccc1)NC(=O)[C@@H](N)CCCCN)C(=O)N[C@@H](C)C(=O)N[C@@H](CO)C(=O)N[C@@H](CC(=O)O)C(=O)N[C@H](C(=O)N[C@H](C(=O)N[C@@H](Cc1ccccc1)C(=O)O)C(C)C)C(C)C [CDC45L-A24-9-370-7] (H-KFLASDVVF-OH) | exhibited cytotoxicity | exhibited cytotoxic activity | –
2 | – | – | CC[C@H](C)[C@H](NC(=O)[C@H](CC(C)C)NC(=O)[C@H](C)NC(=O)[C@H](CC(=O)O)NC(=O)[C@H](CC(C)C)NC(=O)[C@H](Cc1ccccc1)NC(=O)[C@@H](N)CCCCN)C(=O)N[C@@H](CO)C(=O)N[C@@H](CC(C)C)C(=O)N[C@@H](CC(C)C)C(=O)O [CDC45L-A24-10-556-12] (H-KFLDALISLL-OH) | – | exhibited cytotoxic activity | –
3 | did not exhibit pathological changes | no signs of autoimmune diseases | CC(C)C[C@H](NC(=O)[C@H](CCCCN)NC(=O)[C@H](Cc1ccccc1)NC(=O)[C@H](CCCNC(=N)N)NC(=O)[C@H](C)NC(=O)[C@H](C)NC(=O)[C@@H](NC(=O)[C@H](Cc1ccc(O)cc1)NC(=O)[C@@H](N)CO)[C@@H](C)O)C(=O)O [CDC45L-A24-9-294-3] (H-SYTAARFKL-OH) | exhibited cytotoxicity | exhibited cytotoxic activity | –
4 | did not exhibit pathological changes | no signs of autoimmune diseases | CC[C@H](C)[C@H](NC(=O)[C@H](CCC(N)=O)NC(=O)[C@@H](NC(=O)[C@H](CC(=O)O)NC(=O)[C@H](CC(N)=O)NC(=O)[C@H](Cc1ccc(O)cc1)NC(=O)[C@@H](N)C(C)C)[C@@H](C)O)C(=O)N[C@@H](CCCCN)C(=O)N[C@@H](CC(C)C)C(=O)O [CDC45L-A24-9-109-2] (H-VYNDTQIKL-OH) | – | exhibited cytotoxic activity | cytotoxicity of peptide-induced CTLs against Lu99 cells [4]: exhibited cytotoxicity; cytotoxicity of peptide-induced CTLs against Lu99 cells transfected with CDC45L specific siRNAs [4]: not against; cytotoxicity of peptide-induced CTLs against A549 cells [5]: not against
5 | – | – | CC[C@H](C)[C@H](NC(=O)[C@H](CC(C)C)NC(=O)[C@H](C)NC(=O)[C@H](CC(=O)O)NC(=O)[C@H](CC(C)C)NC(=O)[C@H](Cc1ccccc1)NC(=O)[C@@H](N)CCCCN)C(=O)N[C@@H](CO)C(=O)N[C@@H](CC(C)C)C(=O)O [CDC45L-A24-9-556-4] (H-KFLDALISL-OH) | – | exhibited cytotoxic activity | cytotoxicity of peptide-induced CTLs against Lu99 cells transfected with CDC45L specific siRNAs ([4]; CDC45L-, HLA-A24+ target cells): not against; cytotoxicity of peptide-induced CTLs against Lu99 cells ([4]; Lu99 cells and Lu99 cells transfected with control GFP siRNAs): exhibited cytotoxicity; cytotoxicity of CTL lines against C1R-A2402 cells loaded with the peptide [2]: not against; cytotoxicity of CTL lines against peptide-pulsed T2 cells [6]: exhibited cytotoxicity; cytotoxicity against Panc1 cells in presence of blocking mAb against HLA-class I (W6/32) [7]: significantly inhibited
